PMC11699688, “Unravelling the outcome of L-glutaminase produced by Streptomyces sp. strain 5 M as an anti-neoplasm activity” (Microbial Cell Factories, 2025)

Test system: T1, L-glutaminase
T1 construct: native extracellular enzyme purified from culture (ammonium sulfate, DEAE-cellulose, Sephacryl S-300); 52 kDa by SDS-PAGE (54 kDa in discussion); monomer
Assay: steady-state kinetics, ammonia release by Nesslerization
Assay type: biochemical, Streptomyces sp. 5 M
Conditions: substrate 2-5 mM; pH and temperature of the kinetic run not printed (optimum pH 7.5, 40 °C)
From the text: steady-state kinetics, ammonia release by Nesslerization on L-glutaminase | the purified L-glutaminase from Streptomyces sp.

Km: 2620 µM
Structure (SMILES): NC(=O)CC[C@H](N)C(=O)O [L-glutamine]
